The values that follow come from EP3692101B1, “BRILLIANT BLUE (BBG) DYE DERIVATIVES AND STAINING COMPOSITIONS COMPRISING THE SAME FOR SELECTIVELY STAINING BIOLOGICAL SUBSTRATES” (priority 2017, dated 2019).

In one data set the test system is retina. The experiment in a line: Ex-vivo staining of porcine eyes, dye extraction and HPLC quantification in retina near the peeled area. Particulars: ex-vivo swine eyes; for increase in the dyes content in the retina with respect to the staining formulation according to the invention: p=0.004. As to the method: (§1) To this end, a staining composition according to the invention was prepared having the following formulation (% by weight). • dye: Benzyl-BBG according to Example 4: 0.025% • Sodium phosphate monobasic dihydrate: 0.368% (SIGMA ALDRICH) • Sodium phosphate bibasic dihydrate: 0.711% (SIGMA ALDRICH) • Sodium chloride: 0.400% (SIGMA ALDRICH) • water for injectables: up to 100% (FRESENIUS KABI ITALIA S.R.L.).
(§2) This staining composition was compared with two staining composition available on the market, more specifically: • a staining composition including BBG and marketed under the trade name of ILM-BLUE® (D.O.R.C. Dutch Ophthalmic Research Center (International) B.V.), and with • a staining composition including methyl-BBG according to WO 2016/189475 marketed under the trade name of VIEW-ILM (AL.CHI.MI.A. S.r.l.).
(§3) Porcine eyes were obtained from a slaughterhouse and were prepared within 5 hours after death, the eyes were placed on a plastic holder, and a 360-degree limbal incision was performed for corneal removal, followed by total iris removal. Whole vitreous was gently extracted.
Next, 1 ml of BSS was placed in the eye and 40 µl of dye formulation was gently placed in the eye, by a Gilson pipet, for 30 seconds; then the BSS along the dye were removed and the eye rinsed with BSS. […]
Retina and ILM tissue samples obtained as described above were weighed and homogenized in 250-500 µl of methanol. […] The residues were reconstituted in 100 µl of mobile phase by vortexing for 120 s, filtered again on 0.45 µm filters and, finally, 20 µl aliquots were injected onto the chromatographic apparatus (each sample was analyzed in triplicate). […]
(§4) Quantification of the dye molecule was performed using 6-10 points external regression curves performed at 613 nm. […]
(§5) In the data analysis, statistical differences of ex-vivo data are determined using analysis of variance (ANOVA) followed by the Bonferroni-Dunn post hoc pairwise comparison procedure. […]

For data set [1], the system named is proteins and protein chains. Briefly: SDS-PAGE protein staining, whole set of molecular weight standards (spots versus background). The following applies: result in words; dye 0.05% by weight/volume. As to the method:
The dye molecules according to the invention were tested in order to show their higher selectivity for proteins and protein chains with respect to BBG. For this purpose, SDS-PAGE electrophoresis tests were performed in order to compare the Benzyl-BBG according to the invention (Example 4) and the Ethyl-BBG according to Example 2 with a commercially available grade of BBG (Sigma-Aldrich 90% purity).
A set of molecular weight standards was created by mixing different amounts of known proteins (E.coli beta-galactosidase - 116.3 kDa, bovine serum albumin - 66.5 kDa, chicken ovalbumin - 42.7 kDa and equine cytochrome C - 12,384 Da) in such a way as to obtain bands of similar intensity. In order to do so, an inverse relationship between amount (as nanograms of protein) and molecular weight of any protein was initially achieved, and small adjustments were experimentally made. Polyacrylamide gel electrophoresis was done in 9% precast gels (Bio-Rad) at 20V for 60-90 minutes in denaturing conditions; standards were loaded in triplicate on separate lanes. […]

For another data set, the system named is ILM. The experiment in a line: Ex-vivo staining of porcine eyes, dye extraction and HPLC quantification in peeled ILM. Particulars: ex-vivo swine eyes; for amounts of the dye molecule in the ILM (mean): 40 µl dye formulation in 1 ml BSS for 30 seconds, mean of 6, BBG 0.025% (ILM-BLUE), methyl-BBG 0.03% (VIEW-ILM), Benzyl-BBG 0.025%. As to the method:
as §1, §2, §3
Next, 1 ml of BSS was placed in the eye and 40 µl of dye formulation was gently placed in the eye, by a Gilson pipet, for 30 seconds; then the BSS along the dye were removed and the eye rinsed with BSS.
The peeling of ILM was carried out by forceps and the tissue placed in an Eppendorf tube, the rest of retina near the area of ILM peeling was collected and placed in another Eppendorf tube.
The average amount of ILM tissue was of about 2 mg, whereas the average amount of retina tissue was of about 20 mg.
All tissues (ILM and retina) were stored at -20°C before HPLC analysis.
Retina and ILM tissue samples obtained as described above were weighed and homogenized in 250-500 µl of methanol. The homogenates were then transferred in an Eppendorf tube, ultrasonically extracted using a Branson Sonifier, centrifuged at 1,000 x g for 10 min and filtered on 0.45 µm syringe filters. The filtrates were transferred into labeled, clean test tubes and evaporated to dryness under a stream of nitrogen. The residues were reconstituted in 100 µl of mobile phase by vortexing for 120 s, filtered again on 0.45 µm filters and, finally, 20 µl aliquots were injected onto the chromatographic apparatus (each sample was analyzed in triplicate). […]
as §4, §5

For data set [2] the following is noted: cited from earlier work.

As to `CCOc1ccc(Nc2ccc(C(=C3C=CC(=[N+](CC)Cc4cccc(S(=O)(=O)[O-])c4)C=C3C)c3ccc(N(CC)Cc4cccc(S(=O)(=O)O)c4)cc3C)cc2)cc1` [BBG, Coomassie Brilliant Blue G-250], the “increase in the dyes content in the retina with respect to the staining formulation according to the invention” value in the data set with retina is on record as 20.1 fold.
Regarding `CCOc1ccc(N(Cc2ccccc2)c2ccc(C(=C3C=CC(=[N+](CC)Cc4cccc(S(=O)(=O)[O-])c4)C=C3C)c3ccc(N(CC)Cc4cccc(S(=O)(=O)O)c4)cc3C)cc2)cc1` [Benzyl-BBG], the “difference between the spot intensity of Benzyl-BBG and Ethyl-BBG” value in data set [1] is recorded as “No significant difference”. For the same compound, the “amounts of the dye molecule in the ILM (mean)” value with ILM is 214.88 ng/mg tissue; with ILM (listed as benzyl-BBG), “about 215 ng/mg tissue”. Besides, the “increase of dye content in ILM with respect to the known formulation including BBG” value in the data set on ILM (p = 0,002) was found to be 2.9 fold. Also, in the data set with ILM (p<0,001), the “increase of dye content in ILM with respect to the known formulation including methyl-BBG” value is on record as 6.0 fold. Also, in the data set on retina (40 µl dye formulation in 1 ml BSS for 30 seconds, mean of 6, BBG 0.025% (ILM-BLUE), methyl-BBG 0.03% (VIEW-ILM), Benzyl-BBG 0.025%), the “amounts of the dye molecule in the retina (mean)” value worked out at 19.69 ng/mg tissue.
In the case of `c1ccc(CNCc2ccccc2)cc1` [dibenzylamine], in data set [2], the pKa – broadly, the pH at which an ionisable group is half protonated – is reported as 8.52.
For `CCOc1ccc(N(C)c2ccc(C(=C3C=CC(=[N+](CC)Cc4cccc(S(=O)(=O)[O-])c4)C=C3C)c3ccc(N(CC)Cc4cccc(S(=O)(=O)O)c4)cc3C)cc2)cc1` [methyl-BBG], the “increase in the dyes content in the retina with respect to the staining formulation according to the invention” value in the data set with retina was 10.9 fold.
